The values that follow come from patent US20250257041A1, “INDUCERS OF INTEGRATED STRESS RESPONSE TO TREAT CANCER” (The Board of Regents of The University of Texas System, priority 2022, published 2025).

Bounds are passed on as bounds.

One data set relates to HCT116 GCN2KO. As to the kind of experiment: Proliferation of HCT116 cells with GCN2 knocked out (CRISPR), Cell TiterGlo. The data set is classed as cell-based, human. The settings on record: Homo sapiens, HCT-116, read-out: HCT116 IC50 (uM) HCT116 − GCN2KO. The gist of the method:
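HCT116 cells with CRISPR GCN2 knockout, run alongside wild type and wild type plus ISRIB in the same experiment. 10-point dose response in triplicate; proliferation read by CellTiter-Glo and IC50 derived.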
(Cellular ATP, detected with luciferase, serves as a proxy for viable cell number.)

The subject of a further data set is HCT116 WT. Kind of data set: Proliferation of HCT116 colorectal cell line, Cell TiterGlo. Format: cell-based, human. The settings on record: Homo sapiens, HCT-116, read-out: HCT116 IC50 (uM) HCT116 WT (repeat). A digest of the protocol: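 HCT116 colorectal cells, wild type, GCN2 CRISPR knockout, or wild type plus ISRIB; proliferation read by CellTiter-Glo luminescence. 10-point dose response in triplicate, IC50 reported; multiple values are independent experiments.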

Data set [1] can be described thus: Solubility remark printed in the HCT116 WT column. Format: physicochemical. The settings on record: cell wraps over r19 and r20: poor solubility.

A word on the IC50: it is the point on the concentration scale where inhibition reaches its midpoint.

With `Cn1nc(-c2ccc(NC(=O)c3ccccc3)cc2)cc1NC(=O)c1ccc(C(=O)c2ccccc2)cc1` [SW389003, N-(3-(4-Benzamidophenyl)-1-methyl-1H-pyrazol-5-yl)-4-benzoylbenzamide], the IC50 with HCT116 GCN2KO and in the data set on HCT116 WT was not below 50 µM in each case. Further, in data set [1], the “Solubility (remark in place of an IC50)” value is given as “poor”.
